According to US20250108036A1, “COMPOSITIONS FOR REMOVING SENESCENT CELLS AND USES THEREOF” (LIFECEUTIX CO., LTD., priority 2021, published 2025):
Read-outs that look alike come from different tables or passages of the source.

Legend:
[1] = tested on: foreskin cells in which senescence was induced by doxorubicin; test: CellTiter-Glo cell viability of doxorubicin-induced senescent foreskin cells (Examples 1-2, 10, 11, 13; Tables 4, 63, 65); assay type: cell-based, human; conditions: for viability at 1.1 µM / viability at 10 µM: Homo sapiens, 72 h, read-out: Survival (%); for viability at 10 µM: LX-112 10 μM
Description: (§1) After 3 days, cell viability was measured using CellTiter-Glo Luminescent Cell Viability Assay (Promega) or light microscopy.

IL6 = test: serum IL6 ELISA in doxorubicin-aged mice (Example 8-5); assay type: in vivo, C57BL6J mice; conditions: doxorubicin-aged mice, LX-112 70 mg/kg oral daily 21 days
Description: After adapting 8-week-old male C57BL6J mice (purchased from KRIBB Laboratory Animal Resource Center) to the experimental environment for 1 week, doxorubicin, an anticancer drug, was administered intraperitoneally at a concentration of 10 mg/kg, and mice that were induced to age for more than 10 days were assigned to an experimental group and a control group. LX-112 was mixed with 0.5% CMC-Na solution (purchased from Sigma) and administered orally at a concentration of 70 mg/kg daily for 21 days. The control group was administered only the solution in the same volume. After drug administration was completed, the method described in each Example below was performed.
The amount of IL6, an aging-related inflammation secretory factor (SASP), was measured in serum collected from mice in the same manner as in Example 7-5 using an enzyme-linked immunosorbent assay (ELISA Kit, purchased from R&D Systems).

HMGN1 = HMGN1 ELISA in culture medium of foreskin cells (Examples 10, 11; Tables 62, 63, 64); assay type: cell-based, human; conditions: for HMGN1 (pg/ml): senescent foreskin cells
HMGB1 = HMGB1 ELISA in culture medium of senescent foreskin cells (Example 10, Table 62); assay type: cell-based, human
Description: After 6 hours, the amounts of HMGB1 and HMGN1 secreted into the cell culture medium were measured using an enzyme-linked immunosorbent assay (ELISA Kit, purchased from AssayGenie).

senescent foreskin cells = test: survival of senescent foreskin cells treated with medium supernatant (secreted fluid) of compound-killed cells (Example 13, Tables 68, 69); assay type: cell-based, human; conditions: for Survival (%): supernatant-treated cells: senescent cells, after 3 days
Description: as §1
During this additional culture, by checking with an optical microscope, etc., the medium supernatants containing secreted fluid from normally proliferating and senescent cells in which cell death was induced were obtained. The obtained medium supernatant was replaced with the medium of normally proliferating and senescent cells, respectively, and cell survival rate was measured after 3 days.

[2] = tested on: foreskin cells in which senescence was not induced; test: CellTiter-Glo growth of foreskin cells in which senescence was not induced (Tables 5, 12); conditions: 3 days
Description: as §1

A549 = test: CellTiter-Glo cell viability of senescent A549 cancer cells (Example 12, Table 67); assay type: cell-based, human; conditions: Homo sapiens, A549, doxorubicin-induced senescent A549 cancer cells, 1.1 μM test compound, CellTiter-Glo; read-out: Survival (%)
[3] = tested on: normally proliferating cancer (A549) cells; test: survival of normally proliferating A549 cancer cells treated with medium supernatant of compound-killed cancer cells (Example 14, Table 70); assay type: cell-based, human
Description: In the same way as Examples 12 and 13, senescence of cancer (A549) cells was induced by treatment with doxorubicin or the control group (DMSO), and the cells were cultured. […] In the same manner as in Example 13, the medium supernatants comprising secreted fluid from normally proliferating and senescent cancer cells was obtained. Normally proliferating and senescent-induced cancer cells were treated with the medium supernatants.

p16, MMP3, IL6 = p16, MMP3, IL6 mRNA qRT-PCR in groin fat of obese mice given senescent cells killed by test compounds (Example 16, Table 72); assay type: in vivo, C57BL6J mice; conditions: obese mice administered senescent cells whose death was induced by the test compound
Excerpt: To obtain preadipocytes, groin fat tissue was collected from an 8-week-old female C57BL6J mouse (purchased from KRIBB Laboratory Animal Resource Center). The fat tissue was cut into small pieces and treated with collagenase to decompose the fat tissue, then centrifuged to collect the stromal vascular fraction (SVF) containing preadipocytes. It was washed with a washing medium (HBSS, purchased from GenDEPOT; 3.5% Albumin Fraction V, purchased from GenDEPOT; 100 U/ml Penicillin & Streptomycin, purchased from Invitrogen), mixed again, and extracted by filtering through a 100 μm nylon mesh. The isolated preadipocytes were cultured in the designated medium (DMEM, purchased from GenDEPOT; 20% FBS, purchased from GenDEPOT; 100 U/ml Penicillin & Streptomycin, purchased from Invitrogen). In the same manner as Example 1, cells were treated with doxorubicin at a concentration of 250 nM for 24 hours and cultured for an additional 21 days to induce cell senescence. Cells were treated with doxorubicin at a concentration of 250 nM for 24 hours and cultured for an additional 21 days to induce cell senescence. By treating the test compounds in the same manner as in Example 13, it was confirmed using an optical microscope that the death of most senescent cells was induced. The killed preadipocytes were washed using PBS (purchased from Welgene) and then mixed with PBS at a concentration of 5×10^5 cells/200 μl. It was administered subcutaneously to 8-week-old female C57BL6J mice (purchased from KRIBB Laboratory Animal Resource Center). At 7 and 10 days after administration of the killed senescent cells, 2 million senescent preadipocytes were mixed in 200 μl of PBS and administered into the abdominal cavity of mice. After administration of killed senescent cells, obesity was induced in mice with a high-fat diet (DIO) for 8 weeks in the same manner as in Example 9-1. Afterwards, the mouse was sacrificed in the same manner as in Example 7-2, total RNA was extracted from the groin fat tissue, and qRT-PCR was performed and analyzed using the synthesized cDNA. […] The mRNA amount of p16, MMP3, and IL6 without administration of senescent cells whose death was induced by the test compounds was calculated as 100%, and the amount of p16, MMP3, and IL6 after administration of the senescent cells whose death was induced by the test compounds was compared with them. Furthermore, an open field test was performed to analyze aging-related frailty in mice using the same method as Example 7-7. […] The amount of activity evaluation without administration of senescent cells whose death was induced by the test compounds was calculated as 100% and compared it with the amount of activity evaluation after administration of senescent cells whose death was induced by the test compounds. […]

[4] = ABT-263 1 μM or LX-112 10 μM, 6 hours

O=c1c2ccccc2[se]n1CCn1[se]c2ccccc2c1=O [LX-112, 1,2-[bis(1,2-benzisoselenazolone-3(2H)-ketone)]ethane]
viability at 1.1 µM ([1]; LX-112 1.1 μM, 3 days): 67.2%
viability at 1.1 µM ([1]; LX-112 1.1 μM, senescent foreskin cells): 67.2%
viability at 10 µM ([1]; 3 days): 1%
viability at 10 µM ([1]; senescent foreskin cells): 1%
IL6 (%) (IL6): 69.8 (±12.2) %
HMGN1 (pg/ml) (HMGN1; 10 μM, culture medium after 6 hours): 262.45 (±23.4) pg/ml
HMGN1 secreted in the culture medium from dying senescent cells (HMGN1; [4]): greatly increased
HMGN1 (pg/ml) (HMGN1; LX-112 1.1 μM): 129.7(±9.3) pg/ml
HMGN1 (pg/ml) (HMGN1; LX-112 10 μM): 262.45 (±23.4) pg/ml
HMGB1 (pg/ml) (HMGB1; 10 μM, culture medium after 6 hours, senescent foreskin cells): 454.9 (±22.4) pg/ml
HMGB1 secreted in the culture medium from dying senescent cells (HMGB1; [4]): little change
death of senescent cells by medium supernatant (secreted fluid) of cells killed by the compound (senescent foreskin cells; supernatant from normally proliferating or senescent cells, survival after 3 days): selectively induced the death of senescent cells
Growth (%) ([2]; Table 5, LX-112 1.1 μM, N0 (cell number before treatment) = 100%): 201 (±8) %
Growth (%) ([2]; Table 5, LX-112 10 μM, N0 = 100%): 123 (±8) %
Growth (%) ([2]; Table 12, LX-112 1.1 μM, N0 = 100%): 206 (±15) %
Growth (%) ([2]; Table 12, LX-112 10 μM, N0 = 100%): 122.7 (±16) %

COC(=O)c1ccc([C@H]2c3[nH]c4ccccc4c3C[C@H](C(=O)OC)N2C(=O)CCl)cc1 [LX-405]
cell death, senescent cells ([1]; 30 μM, 3 days): induced the death of most cells
viability at 1.1 µM ([1]; 1.1 μM test compound, doxorubicin-induced senescent foreskin cells, CellTiter-Glo, 0 μM = 100): 4.9%
activity at 30 µM (HMGN1; Homo sapiens, 30 μM test compound, doxorubicin-treated foreskin cells, DMSO = 100, read-out: HMGN1): 285%
viability at 1.1 µM (A549): 23.8%
Survival (%) (senescent foreskin cells; supernatant from compound-treated medium without cells (No Cells)): 102.8 (±4.6) %
Survival (%) (senescent foreskin cells; supernatant from death-induced proliferating foreskin cells (compound 30 μM)): 41.3 (±3.6) %
Survival (%) (senescent foreskin cells; supernatant from death-induced senescent foreskin cells (compound 30 μM)): 52.7 (±0.1) %
Survival (%) ([3]; supernatant from No Cells): 101.4 (±1.3) %
Survival (%) ([3]; supernatant from death-induced proliferating cells (LX-405 30 μM)): 98.6 (±4.8) %
Survival (%) ([3]; supernatant from death-induced senescent cells (LX-405 30 μM)): 105.2 (±4.9) %
IL6 mRNA (%) (p16, MMP3, IL6): 68.7 (±9.1) %
MMP3 mRNA (%) (p16, MMP3, IL6): 80.5 (±2.8) %
p16 mRNA (%) (p16, MMP3, IL6): 72.4 (±3.9) %
cell death, normally proliferating cells ([2]; 30 μM): induced the death of most cells
